The values that follow are results of earlier work, collected in patent publication US20200372978A1 (priority 2019, published 2020).

This data set concerns the target T1, PPARγ (Homo sapiens, UniProt P37231).
T1 sequence (P37231 1-505): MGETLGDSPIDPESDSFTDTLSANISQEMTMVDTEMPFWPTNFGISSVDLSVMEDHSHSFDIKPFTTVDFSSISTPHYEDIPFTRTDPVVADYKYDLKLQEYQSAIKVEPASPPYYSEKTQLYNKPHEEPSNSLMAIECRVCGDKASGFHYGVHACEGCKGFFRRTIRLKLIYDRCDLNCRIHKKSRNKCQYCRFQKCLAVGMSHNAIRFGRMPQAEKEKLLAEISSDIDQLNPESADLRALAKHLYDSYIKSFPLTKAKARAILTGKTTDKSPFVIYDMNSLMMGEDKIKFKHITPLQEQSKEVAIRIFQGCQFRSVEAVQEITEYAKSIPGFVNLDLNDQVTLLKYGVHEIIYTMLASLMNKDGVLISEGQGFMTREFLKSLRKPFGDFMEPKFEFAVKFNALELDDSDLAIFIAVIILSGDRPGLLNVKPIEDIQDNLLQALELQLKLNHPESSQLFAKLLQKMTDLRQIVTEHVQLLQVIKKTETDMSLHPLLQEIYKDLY
The conditions noted are these: of the maximum effect of ROSI.

Take `CC(C)COC(=O)c1ccccc1C(=O)OCC(C)C` [DiBP]: the maximum effect was 25%.
